“Also recorded” adds a separate entry of the source.
Experiments:
TRPV4 = TRPV4 (Rattus norvegicus, UniProt Q9ERZ8); conditions: for average peak ∆Ca++ concentration: ≈100 cells, vehicle control 1156
Description: We assessed TRPV4-inhibitory potency of these synthetic compounds in a Ca^++ imaging assay in neuronal 2a (N2a) permanent tissue culture cells with directed expression of mammalian (rat) TRPV4. […] For first round assessment, all TRPV4-inhibitory compounds were used at 5 μM (Fig. 2A).
(A) Ca^++ imaging screening of all compounds in N2A cells with directed expression of TRPV4 (rat). […] The number on each bar corresponds to average peak ∆Ca^++ concentrations in ≈100 cells. Inset: micrographs of pseudo-colored cells before and after activation with 5nM GSK101, in addition note the corresponding time course of the averaged Ca^++ signal (fura-2 Ca^++ imaging). […] Plot generated from averaged peak ∆Ca^++ concentration of ≥75 cells per data-point.
TRPV4-eGFP from rat was used, previously found to respond to stimulation with GSK101 and hypotonicity in similar manner as native, non-fused TRPV4.

TRPA1 = TRPA1 (Mus musculus, UniProt Q8BLA8)
Description: Mean±SEM is shown, ≥100 cells per condition. […] Plot generated from averaged peak ∆Ca^++ concentration of ≥75 cells per data-point.
N2a cells were used for directed expression of TRP ion channels as described previously[13]. […] All other channels were native channels from mouse, eGFP was co-transfected. […] Ca^++ imaging was performed as described previously[13][14][34].
To visualize dose-response relationships, Hill plots were conducted using the Igor Pro software program, which derived the plots based on the following equation:

[1] = test system: formalin-evoked trigeminal irritant pain (TRPA1 contribution); assay: Trigeminal formalin irritant pain model, Trpv4-/- mice; format: in vivo, mouse; conditions: 25 mg/kg i.p.
Description: Figure 7 16-8 and 16-19 effectively attenuate formalin-evoked trigeminal irritant pain. (A) Time-course of nocifensive behavior in WT mice following whisker-pad injection of 4% formalin. The mice were pre-injected (i.p., 10 mg/kg; 15 min before formalin) with GSK205, 16-8 or 16-19. Note effective reduction of nocifensive behavior in the late “neural” phase by compounds 16-8, 16-19, not by GSK205. (B) Cumulative response binned into 3 phases: acute phase (0–5 min), interphase (5–15 min), and late “neural” phase (15–45 min). […] (C) As in (A), but also including Trpv4^−/− mice. Compounds were applied i.p. 15 min before formalin challenge, at 10 mg/kg except established TRPA1 blocker, A967079 (25 mg/kg). Previously-established attenuated nocifensive behavior in early and late phase in Trpv4^−/− mice was recapped, which was reduced further by TRPA1 blocker, A967079. (D) As in (B), plus inclusion of Trpv4^−/− mice. Robust effects of TRPA1-blocker, A967079, were mimicked equi-potently by 16-8 and 16-19 for early phase, and by 16-8 for late phase, partially by 16-19 for late phase. (A,C) show averaged behavioral metrics per time-point, bars in (B,D) represent mean ± SEM; for (D) ^*P < 0.05; ^#P < 0.005, one-way ANOVA; for all panels n = 5–8 mice/group. […] We observed significant residual irritant-pain behavior in all phases of the formalin model in Trpv4^−/− mice, consistent with our previous report[13] (Fig. 7C,D). […] A reference TRPA1-inhibitory compound, A967079, was used at 25 mg/kg body weight as a positive control to inhibit TRPA1, based on a previous report. Reduction of pain behavior in Trpv4^−/− mice was striking, more than 50% in the late neural phase. […] We conclude that compound 16-8 also functions as a potent TRPA1-inhibitor in an in-vivo irritant pain model specifically designed to assess the contribution of TRPA1 to trigeminal irritant pain, and at least as potent as an established reference TRPA1-antagonistic compound. Implementation of this model was conducted as described previously. Video-taped nocifensive behavior was assessed by investigators blinded to genotype and treatment.

[2] = test system: formalin-evoked trigeminal irritant pain; assay: Trigeminal formalin irritant pain model, WT mice; format: in vivo, mouse; conditions: 10 mg/kg i.p., 15 min before 4% formalin, 15–45 min
Description: Figure 7 16-8 and 16-19 effectively attenuate formalin-evoked trigeminal irritant pain. (A) Time-course of nocifensive behavior in WT mice following whisker-pad injection of 4% formalin. The mice were pre-injected (i.p., 10 mg/kg; 15 min before formalin) with GSK205, 16-8 or 16-19. Note effective reduction of nocifensive behavior in the late “neural” phase by compounds 16-8, 16-19, not by GSK205. (B) Cumulative response binned into 3 phases: acute phase (0–5 min), interphase (5–15 min), and late “neural” phase (15–45 min). […] (C) As in (A), but also including Trpv4^−/− mice. Compounds were applied i.p. 15 min before formalin challenge, at 10 mg/kg except established TRPA1 blocker, A967079 (25 mg/kg). Previously-established attenuated nocifensive behavior in early and late phase in Trpv4^−/− mice was recapped, which was reduced further by TRPA1 blocker, A967079. (D) As in (B), plus inclusion of Trpv4^−/− mice. Robust effects of TRPA1-blocker, A967079, were mimicked equi-potently by 16-8 and 16-19 for early phase, and by 16-8 for late phase, partially by 16-19 for late phase. (A,C) show averaged behavioral metrics per time-point, bars in (B,D) represent mean ± SEM; for (D) ^*P < 0.05; ^#P < 0.005, one-way ANOVA; for all panels n = 5–8 mice/group. Implementation of this model was conducted as described previously. Video-taped nocifensive behavior was assessed by investigators blinded to genotype and treatment.

[3] = test system: formalin-evoked trigeminal irritant pain; design: method as in PMID 25281928; conditions: intradermal injection; cited from earlier work

Chain of TRPV4 (Q9ERZ8 whole entry): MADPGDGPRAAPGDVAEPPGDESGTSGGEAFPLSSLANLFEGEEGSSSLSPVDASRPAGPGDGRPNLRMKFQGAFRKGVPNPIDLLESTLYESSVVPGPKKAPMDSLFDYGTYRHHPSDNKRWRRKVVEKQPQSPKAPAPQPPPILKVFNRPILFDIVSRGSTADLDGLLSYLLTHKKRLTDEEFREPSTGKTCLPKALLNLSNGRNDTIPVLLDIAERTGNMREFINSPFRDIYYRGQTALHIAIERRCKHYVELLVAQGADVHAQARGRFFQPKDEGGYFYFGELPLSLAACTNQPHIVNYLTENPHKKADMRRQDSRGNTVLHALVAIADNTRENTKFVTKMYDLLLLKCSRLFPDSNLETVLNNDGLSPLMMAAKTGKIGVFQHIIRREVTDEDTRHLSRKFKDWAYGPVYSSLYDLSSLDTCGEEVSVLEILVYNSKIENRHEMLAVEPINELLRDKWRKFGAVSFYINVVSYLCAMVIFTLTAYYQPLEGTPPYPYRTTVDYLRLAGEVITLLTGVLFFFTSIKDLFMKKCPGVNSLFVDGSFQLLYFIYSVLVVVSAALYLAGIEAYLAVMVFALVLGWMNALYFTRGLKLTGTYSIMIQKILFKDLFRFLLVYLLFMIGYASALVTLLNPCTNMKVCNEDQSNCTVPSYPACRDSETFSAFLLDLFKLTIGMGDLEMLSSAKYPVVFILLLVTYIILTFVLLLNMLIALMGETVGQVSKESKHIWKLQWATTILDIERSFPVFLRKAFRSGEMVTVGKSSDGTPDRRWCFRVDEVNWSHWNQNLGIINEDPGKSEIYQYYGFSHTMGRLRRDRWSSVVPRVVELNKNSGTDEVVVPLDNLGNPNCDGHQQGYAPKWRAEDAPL
Chain of TRPA1 (Q8BLA8 whole entry): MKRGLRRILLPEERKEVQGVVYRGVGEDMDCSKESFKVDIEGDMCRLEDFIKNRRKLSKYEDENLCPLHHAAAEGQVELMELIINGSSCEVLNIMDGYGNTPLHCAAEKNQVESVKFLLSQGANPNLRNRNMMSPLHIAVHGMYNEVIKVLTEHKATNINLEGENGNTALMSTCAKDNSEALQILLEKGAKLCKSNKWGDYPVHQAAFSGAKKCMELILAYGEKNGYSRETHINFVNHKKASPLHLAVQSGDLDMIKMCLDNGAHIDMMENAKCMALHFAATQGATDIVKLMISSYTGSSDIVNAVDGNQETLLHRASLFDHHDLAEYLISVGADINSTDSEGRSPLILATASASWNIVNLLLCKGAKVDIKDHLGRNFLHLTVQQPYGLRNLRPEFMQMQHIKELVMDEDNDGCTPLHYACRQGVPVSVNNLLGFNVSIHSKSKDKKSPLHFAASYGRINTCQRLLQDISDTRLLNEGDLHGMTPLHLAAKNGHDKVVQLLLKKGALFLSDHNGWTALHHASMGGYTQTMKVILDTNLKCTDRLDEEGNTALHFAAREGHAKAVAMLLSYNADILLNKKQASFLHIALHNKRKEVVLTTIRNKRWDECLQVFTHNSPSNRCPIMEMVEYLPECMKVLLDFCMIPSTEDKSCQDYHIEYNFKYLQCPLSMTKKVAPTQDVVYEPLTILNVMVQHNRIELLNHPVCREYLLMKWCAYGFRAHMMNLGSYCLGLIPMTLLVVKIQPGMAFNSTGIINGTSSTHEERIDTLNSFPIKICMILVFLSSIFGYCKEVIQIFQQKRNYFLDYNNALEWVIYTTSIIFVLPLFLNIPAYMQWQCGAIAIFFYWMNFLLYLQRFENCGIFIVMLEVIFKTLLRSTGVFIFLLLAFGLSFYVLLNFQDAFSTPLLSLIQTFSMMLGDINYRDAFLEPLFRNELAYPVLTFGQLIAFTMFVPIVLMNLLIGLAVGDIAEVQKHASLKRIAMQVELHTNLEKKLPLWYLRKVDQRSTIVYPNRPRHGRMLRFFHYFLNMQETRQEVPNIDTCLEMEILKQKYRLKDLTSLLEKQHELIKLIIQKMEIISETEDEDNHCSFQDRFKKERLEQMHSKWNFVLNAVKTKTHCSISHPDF

CN(CCc1ccc(Nc2nc(-c3cccnc3)cs2)cc1)CCc1cccnc1 [16-12]
average peak ∆Ca++ concentration (TRPV4; 5 μM inhibitor, GSK101 5 nM): 39.5 nM

CN(CCc1ccc(Nc2nc(-c3ccncc3)cs2)cc1)Cc1ccccc1 [16-13]
average peak ∆Ca++ concentration (TRPV4; 5 μM inhibitor, GSK101 5 nM): 52 nM

CN(CCc1ccc(Nc2nc(-c3ccccn3)cs2)cc1)Cc1ccccc1 [16-14]
average peak ∆Ca++ concentration (TRPV4; 5 μM inhibitor, GSK101 5 nM): 558 nM

CN(CCc1ccc(Nc2nc(-c3cccnc3)cs2)cc1)c1ccccc1 [16-16]
average peak ∆Ca++ concentration (TRPV4; 5 μM inhibitor, GSK101 5 nM): 263 nM

CCN(CCc1ccc(Nc2nc(-c3cccnc3)cs2)cc1)Cc1ccccc1 [16-18]
average peak ∆Ca++ concentration (TRPV4; 5 μM inhibitor, GSK101 5 nM): 14 nM
increased potency over GSK205 (TRPV4; from TRPV4 IC50 values): ~5 fold
IC50 (TRPA1): > 25 µM
activity vs TRPA1 (TRPA1; 100 μM mustard oil, N2a cells): no significant activity

CN(CCc1ccc(Nc2ncc(-c3cccnc3)s2)cc1)Cc1ccccc1 [16-43C]
inhibition of TRPV4-mediated Ca++ influx (TRPV4; 5 μM inhibitor, GSK101 5 nM): did not inhibit Ca^++ influx
average peak ∆Ca++ concentration (TRPV4; 5 μM inhibitor, GSK101 5 nM): 1210 nM

CCC(=N\O)/C(C)=C/c1ccc(F)cc1 [A967079, reference compound]
reduction of pain behavior, late neural phase [1]: more than 50%

CN(CCc1ccc(Nc2nc(-c3cccnc3)cs2)cc1)Cc1ccccc1 [GSK205, reference compound]
pain behavior, delayed (late neural) phase [2]: no significant effect
attenuation of trigeminal formalin-evoked pain behavior [3]: effective attenuation; also recorded: effective previously in a dose-dependent manner
IC50 (TRPV4): 4.19 ± 0.71 µM
average peak ∆Ca++ concentration (TRPV4; 5 μM inhibitor, GSK101 5 nM): 650 nM
IC50 (TRPA1): 5.56 µM

Source: paper PMC4887995, “Small molecule dual-inhibitors of TRPV4 and TRPA1 for attenuation of inflammation and pain” (Scientific Reports, 2016)
